In ChEMBL document CHEMBL1681698, “HY251, a novel decahydrocyclopenta[a]indene analog, from Aralia continentalis induces apoptosis via down-regulation of AR expression in human prostate cancer LNCaP cells” (Bioorg Med Chem Lett, 2011):
Activity calls are given as the source filed them. No cut-off for these calls is given here.

Legend:
LNCaP [1] = test: Induction of apoptosis in human androgen-dependent LNCAP cells assessed as increase in active caspase 9 at 95 uM up to 48 hrs by Western blot analysis; assay type: functional, cell-based
LNCaP [2] = test: Induction of apoptosis in human androgen-dependent LNCAP cells assessed as inhibition of PSA protein expression at 95 uM by Western blot analysis; assay type: functional, cell-based; details: TDE = time-dependent effect
LNCaP [3] = test: Induction of apoptosis in human androgen-dependent LNCAP cells assessed as inhibition of androgen receptor gene expression at 95 uM by RT-PCR analysis; assay type: functional, cell-based
LNCaP [4] = test: Induction of apoptosis in human androgen-dependent LNCAP cells assessed as inhibition of PSA gene expression at 95 uM by RT-PCR analysis in presence of 1 nM […]; assay type: functional, cell-based
LNCaP [5] = test: Induction of apoptosis in human androgen-dependent LNCAP cells assessed as nuclei DNA fragmentation at 95 uM after 24 hrs by TUNEL assay; assay type: functional, cell-based
LNCaP [6] = test: Induction of apoptosis in human androgen-dependent LNCAP cells assessed as inhibition of androgen receptor gene expression at 95 uM by RT-PCR analysis in presence of 1 nM […]; assay type: functional, cell-based
[7] = Induction of apoptosis in human hormone-refractory C4-2B cells assessed as cell viability after 24 hrs by MTT assay; assay type: functional; details: LNCaP C4-2B
LNCaP [8] = test: Induction of apoptosis in human androgen-dependent LNCAP cells assessed as […] after 24 hrs by MTT assay; assay type: functional, cell-based
LNCaP [9] = test: Induction of apoptosis in human androgen-dependent LNCAP cells assessed as increase in active caspase 3 at 95 uM up to 48 hrs by Western blot analysis; assay type: functional, cell-based
LNCaP [10] = test: Induction of apoptosis in human androgen-dependent LNCAP cells assessed as PARP cleavage at 95 uM after 12 hrs by Western blot analysis; assay type: functional, cell-based
LNCaP [11] = test: Induction of apoptosis in human androgen-dependent LNCAP cells assessed as cytochrome c release from mitochondria at 95 uM after 24 hrs by Western blot analysis; assay type: functional, cell-based
LNCaP [12] = test: Induction of apoptosis in human androgen-dependent LNCAP cells assessed as inhibition of PSA gene expression at 95 uM by RT-PCR analysis; assay type: functional, cell-based
LNCaP [13] = test: Induction of apoptosis in human androgen-dependent LNCAP cells assessed as inhibition of androgen receptor expression at 95 uM by Western blot analysis; assay type: functional, cell-based; details: TDE = time-dependent effect

SMILES: C=CC1CC2(O)CC3(O)CCC=CC3C2(O)C1(O)CCC (stereo not drawn)
- Activity (LNCaP [1]): Active
- Activity (LNCaP [2]): tde
- Activity (LNCaP [3]): Active
- Activity (LNCaP [4]): Active
- Activity (LNCaP [5]): Active
- Activity (LNCaP [6]): Active
- IC50 [7]: 199 µM
- IC50 (LNCaP [8]): 95 µM
- Activity (LNCaP [9]): Active
- Activity (LNCaP [10]): Active
- Activity (LNCaP [11]): Active
- Activity (LNCaP [12]): Active
- Activity (LNCaP [13]): tde
